Test results taken from EP2820422B1, “ABCG2 TRANSPORTER ASSAY” (priority 2012, dated 2013).

Experiments:
human ABCG2 protein [1] = molecular target: T1, human ABCG2 protein (Homo sapiens, UniProt Q9UNQ0); assay: ABCG2-ATPase activity measurement (vanadate sensitive) in cholesterol loaded, isolated Sf9 membrane vesicles; type: biochemical; parameters: removing the full-length human ABCG2 cDNA (G482 variant) from pcDNA3.1/ABCG2 with SacI digestion; made in house; host or cells: Sf9 insect cells (baculovirus)
T1 sequence (Q9UNQ0 1-655): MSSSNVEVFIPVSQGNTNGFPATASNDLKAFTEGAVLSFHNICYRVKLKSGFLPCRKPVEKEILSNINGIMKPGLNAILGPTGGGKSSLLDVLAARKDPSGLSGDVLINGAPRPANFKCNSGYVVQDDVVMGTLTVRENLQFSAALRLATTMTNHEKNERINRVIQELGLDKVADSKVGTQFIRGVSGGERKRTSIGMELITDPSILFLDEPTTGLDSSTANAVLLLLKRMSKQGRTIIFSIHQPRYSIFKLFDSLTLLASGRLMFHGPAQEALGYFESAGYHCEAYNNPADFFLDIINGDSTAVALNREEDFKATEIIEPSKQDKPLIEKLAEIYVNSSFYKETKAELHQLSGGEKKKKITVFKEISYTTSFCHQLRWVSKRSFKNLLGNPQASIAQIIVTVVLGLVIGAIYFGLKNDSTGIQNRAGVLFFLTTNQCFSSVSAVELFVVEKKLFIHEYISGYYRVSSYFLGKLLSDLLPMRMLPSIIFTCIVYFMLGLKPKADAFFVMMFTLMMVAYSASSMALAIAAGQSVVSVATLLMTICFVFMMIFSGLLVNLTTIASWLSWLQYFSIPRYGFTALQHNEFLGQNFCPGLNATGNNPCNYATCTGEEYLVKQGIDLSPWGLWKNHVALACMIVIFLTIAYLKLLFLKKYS
Experimental: Thus, for direct measurements with ABCG2 in Sf9 membrane vesicles the membrane is loaded with cholesterol. After homogenization the sample is incubated with 2.5 mg/ml cholesterol-cyclodextrin complex (Cyclolab, Budapest) for 20 minutes at +4°C then followed by centrifugation steps.
ABCG2-Sf9 membrane vesicles (10 ug total protein) or isolated ABCG2 (0.2 ug) and separately added liposomes or reconstituted ABCG2-proteoliposome (0.2 ug) was added to assay mixture (final volume 150 ul) and preincubated for 5 or 20 minutes at 37°C when isolated ABCG2 and liposomes are used.
Reaction is started by adding Mg-ATP pH 7.0 to the reaction mixture at 3 mM and stopped after 20 or 30 minutes (for purified ABCG2) by 5% SDS.
Self-degradation of ATP is checked in each measurement by ABCG2 free samples.
Assay mixture was adapted for different setup with different type of ABCG2 samples. Assay buffer was 40 mM TRIS-MOPS pH 7.0 with 0.5 mM EGTA, 50 mM […] and 2 mM DTT.
For 'ABCG2 in Sf9 membrane vesicle' setup 5 mM Na-azide, 1 mM ouabain, were given to inhibit Sf9 intrinsic ATPases. ABC specific ATPase was measured as vanadate sensitive ATPase after determining the vanadate (1.3 mM) insensitive background.
A concentration set of K2HPO4 (10-50 ug/sample) is used as standard.

human ABCG2 protein [2] = molecular target: T1, human ABCG2 protein; conditions: cited from earlier work

In the case of `Cc1cn(-c2cc(NC(=O)c3ccc(C)c(Nc4nccc(-c5cccnc5)n4)c3)cc(C(F)(F)F)c2)cn1` [Nilotinib], the “effect on the ABCG2-ATPase activity” value (human ABCG2 protein [1]; isolated Sf9 cell membrane preparations, first an activation, then an inhibition, Figure 6) is reported as “biphasic effect”.
In the case of `C[C@H](CCC(=O)NCCC[N+](C)(C)CCCS(=O)(=O)[O-])[C@H]1CC[C@H]2[C@@H]3[C@H](O)C[C@@H]4C[C@H](O)CC[C@]4(C)[C@H]3C[C@H](O)[C@]12C` [CHAPS, 3-[(3-Cholamidopropyl)dimethylammonio]-1-propanesulfonate], the “effect of modifier agent on basal ABCG2-ATPase activity” value (human ABCG2 protein [1]; cholesterol loaded Sf9 membrane vesicles, concentrations below the CMC, drug stimulation (5 uM quercetin) not altered, Figures 3 and 4) is reported as “sigificantly decreased”.
In the case of `COc1ccc2c3c([nH]c2c1)[C@H](C=C(C)C)N1C(=O)[C@@H]2CCCN2C(=O)[C@@H]1C3` [FTC], the “inhibition of basal vanadate-sensitive ATPase activity of ABCG2” value (human ABCG2 protein [2]) is given as “fully inhibited”, the “Inhibition (+ modifying agent 0.1% CHAPS)” value (human ABCG2 protein [1]) is given as 70% and the “Inhibition (Control)” value (human ABCG2 protein [1]) is given as 70%.
